Values joined by “and” are separate entries in the source; they are usually repeats but may differ in a detail not shown here. Equal entries are not always repeated. Toxic doses and inconclusive results are not listed.
Tested on: CD2F1 mice, L1210 leukemia ip, survival T/C
Test: NCI In Vivo Anticancer Drug Screen. Data for tumor model L1210 Leukemia (intraperitoneal) in CD2F1 (CDF1) mice
Details: higher = longer survival
Summary of the method: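 Activity against a transplanted murine tumor was judged by comparing the compound group with a vehicle group. The outcome in the treated animals was divided by that in the controls.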

[1] = endpoint: mean survival time, dose: 100.0 mg/kg/injection, schedule: Q04DX002 (ip), vehicle: saline with Tween-80
[2] = endpoint: mean survival time, dose: 200.0 mg/kg/injection, schedule: Q04DX002 (ip), vehicle: saline with Tween-80
[3] = endpoint: mean survival time, dose: 400.0 mg/kg/injection, schedule: Q04DX002 (ip), vehicle: saline with Tween-80

CN(Cc1ccc2nc(N)nc(N)c2n1)c1ccc(C(=O)NC(CCC(=O)O)C(=O)O)cc1 (centres undefined)
T/C (endpoint: mean survival time, dose: 0.12 mg/kg/injection, schedule: Q01DX005 (ip), vehicle: sodium bicarbonate): 150 % of control
T/C (endpoint: mean survival time, dose: 0.5 mg/kg/injection, schedule: Q01DX005 (ip), vehicle: sodium bicarbonate): 115 % of control
T/C (endpoint: mean survival time, dose: 31.25 micrograms/kg/injection, schedule: Q01DX005 (ip), vehicle: sodium bicarbonate): 101 % of control
T/C (endpoint: mean survival time, dose: 62.5 micrograms/kg/injection, schedule: Q01DX005 (ip), vehicle: sodium bicarbonate): 116 % of control
T/C (endpoint: mean survival time, dose: 125.0 micrograms/kg/injection, schedule: Q01DX005 (ip), vehicle: sodium bicarbonate): 122 % of control

O=C(O)CCOc1ccc(F)cc1F
T/C [1]: 86 % of control
T/C [2]: 90 % of control
T/C [3]: 86 % of control

Cc1ccc(C(=O)/C=C/c2ccc(N(C)C)cc2)cc1
T/C (endpoint: mean survival time, dose: 100.0 mg/kg/injection, schedule: Q04DX003 (ip), vehicle: saline with Tween-80): 87 % of control
T/C (endpoint: mean survival time, dose: 200.0 mg/kg/injection, schedule: Q04DX003 (ip), vehicle: saline with Tween-80): 87 % of control
T/C (endpoint: mean survival time, dose: 400.0 mg/kg/injection, schedule: Q04DX003 (ip), vehicle: saline with Tween-80): 89 % of control

NCCCCC(N)C(=O)O (centres undefined)
T/C (endpoint: median survival time, dose: 3.13 mg/kg/injection, schedule: Q04DX002 (ip), vehicle: saline): 100 % of control
T/C (endpoint: median survival time, dose: 6.25 mg/kg/injection, schedule: Q04DX002 (ip), vehicle: saline): 94 % of control
T/C (endpoint: median survival time, dose: 25.0 mg/kg/injection, schedule: Q04DX002 (ip), vehicle: saline): 105 % of control
T/C (endpoint: median survival time, dose: 50.0 mg/kg/injection, schedule: Q04DX002 (ip), vehicle: saline): 117 % of control

C=CCOCC(O)C[As](=O)(O)c1cccc(Cl)c1 (centres undefined)
T/C (endpoint: mean survival time, dose: 6.25 mg/kg/injection, schedule: Q04DX003 (ip), vehicle: saline with Tween-80): 103 % of control
T/C (endpoint: mean survival time, dose: 12.5 mg/kg/injection, schedule: Q04DX003 (ip), vehicle: saline with Tween-80): 119 % of control

CN(C)/N=N/c1[nH]cnc1C(N)=O.[Cl][Cu][Cl]
T/C (endpoint: mean survival time, dose: 1.56 mg/kg/injection, schedule: Q04DX003 (ip), vehicle: water): 97 % of control
T/C (endpoint: mean survival time, dose: 2.0 mg/kg/injection, schedule: Q01DX001 (ip), vehicle: distilled water + Tween-80): 96 % of control
T/C (endpoint: mean survival time, dose: 3.13 mg/kg/injection, schedule: Q04DX003 (ip), vehicle: water): 106 % of control
T/C (endpoint: mean survival time, dose: 4.0 mg/kg/injection, schedule: Q01DX001 (ip), vehicle: distilled water + Tween-80): 94 % of control
T/C (endpoint: mean survival time, dose: 6.25 mg/kg/injection, schedule: Q04DX003 (ip), vehicle: water): 95 % of control
T/C (endpoint: mean survival time, dose: 8.0 mg/kg/injection, schedule: Q01DX001 (ip), vehicle: distilled water + Tween-80): 99 % of control
T/C (endpoint: mean survival time, dose: 12.5 mg/kg/injection, schedule: Q04DX003 (ip), vehicle: water): 94 % of control
T/C (endpoint: mean survival time, dose: 16.0 mg/kg/injection, schedule: Q01DX001 (ip), vehicle: distilled water + Tween-80): 88 % of control
T/C (endpoint: mean survival time, dose: 32.0 mg/kg/injection, schedule: Q01DX001 (ip), vehicle: distilled water + Tween-80): 92 % of control

CCCN1C(=O)C2C3CCC(O3)C2C1=O (centres undefined)
T/C [1]: 95 % of control
T/C [2]: 106 % of control
T/C [3]: 102 % of control

Oc1cccc2ccccc12
T/C (endpoint: median survival time, dose: 50.0 mg/kg/injection, schedule: Q01DX005 (ip), vehicle: water): 95 % of control
T/C (endpoint: median survival time, dose: 100.0 mg/kg/injection, schedule: Q01DX005 (ip), vehicle: water): 95 % of control
T/C (endpoint: median survival time, dose: 200.0 mg/kg/injection, schedule: Q01DX005 (ip), vehicle: water): 101 % of control
T/C (endpoint: median survival time, dose: 400.0 mg/kg/injection, schedule: Q01DX005 (ip), vehicle: water): 93 % of control

Cc1ccc(CCOS(=O)(=O)c2ccc(C)cc2)cc1
T/C (endpoint: mean survival time, dose: 100.0 mg/kg/injection, schedule: Q01DX001 (ip), vehicle: saline with Tween-80): 97 % of control
T/C (endpoint: mean survival time, dose: 200.0 mg/kg/injection, schedule: Q01DX001 (ip), vehicle: saline with Tween-80): 95 % of control
T/C (endpoint: mean survival time, dose: 400.0 mg/kg/injection, schedule: Q01DX001 (ip), vehicle: saline with Tween-80): 95 % of control

CCCCCCCCCCCCCCCCCC[n+]1cccc(C(=O)c2ccccc2)c1
T/C (endpoint: mean survival time, dose: 9.38 mg/kg/injection, schedule: Q01DX001 (ip), vehicle: other): 100 % of control
T/C (endpoint: mean survival time, dose: 18.75 mg/kg/injection, schedule: Q01DX001 (ip), vehicle: other): 108 % of control

F[B-](F)(F)F
T/C (endpoint: mean survival time, dose: 12.5 mg/kg/injection, schedule: Q01DX009 (ip), vehicle: gum acacia): 94 % of control and 106 % of control
T/C (endpoint: mean survival time, dose: 25.0 mg/kg/injection, schedule: Q01DX009 (ip), vehicle: gum acacia): 98 % of control
T/C (endpoint: mean survival time, dose: 50.0 mg/kg/injection, schedule: Q01DX009 (ip), vehicle: gum acacia): 96 % of control and 106 % of control
T/C (endpoint: mean survival time, dose: 100.0 mg/kg/injection, schedule: Q01DX009 (ip), vehicle: gum acacia): 95 % of control and 101 % of control
T/C (endpoint: mean survival time, dose: 200.0 mg/kg/injection, schedule: Q01DX009 (ip), vehicle: gum acacia): 109 % of control
T/C (endpoint: mean survival time, dose: 400.0 mg/kg/injection, schedule: Q01DX009 (ip), vehicle: gum acacia): 98 % of control

Reference: PubChem BioAssay AID256 (DTP/NCI, 2004)
